Read-outs that look alike come from different tables or passages of the source.
Target: T1, PD-1/PD-L1 (Homo sapiens, UniProt Q9NZQ7)
T1 construct: made in house; host or cells: HEK293T
Experiment: PD-1/PD-L1 Homogenous Time-Resolved Fluorescence (HTRF) binding assay
Details: PD-L1-His 10 nM, PD-1-Ig 20 nM, read-out: Range or IC50
Procedure: The ability of the compounds of formula (I) to bind to PD-L1 was investigated using a PD-1/PD-L1 Homogenous Time-Resolved Fluorescence (HTRF) binding assay.
Homogenous Time-Resolved Fluorescence (HTRF) Binding Assay.
All binding studies were performed in an HTRF assay buffer consisting of dPBS supplemented with 0.1% […] bovine serum albumin and 0.05% (v/v) Tween-20. […] HTRF detection was achieved using europium crypate-labeled anti-Ig (1 nM final) and allophycocyanin (APC) labeled anti-His (20 nM final). Antibodies were diluted in HTRF detection buffer and 5 μl was dispensed on top of the binding reaction. […] Additional binding assays were established between the human proteins PD-1-Ig/PD-L2-His (20 & 5 nM, respectively) and CD80-His/PD-L1-Ig (100 & 10 nM, respectively). […]

T1 sequence (Q9NZQ7 with tags, fused parts or gaps): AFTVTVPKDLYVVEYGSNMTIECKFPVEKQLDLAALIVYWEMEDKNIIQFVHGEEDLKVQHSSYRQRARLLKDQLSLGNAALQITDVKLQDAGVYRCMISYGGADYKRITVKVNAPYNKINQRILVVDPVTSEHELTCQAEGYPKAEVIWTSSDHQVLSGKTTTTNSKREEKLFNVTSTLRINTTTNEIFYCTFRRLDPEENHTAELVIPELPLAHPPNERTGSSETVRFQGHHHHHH

| IC50 (value given as range class) [nM] | IC50 (numeric IC50) [nM] | Compound |
| --- | --- | --- |
| 10 to 100 | – | CCNC(=O)c1cccc(-c2cccc(COc3cc(OCc4cncc(C#N)c4)c(CN4CCCC[C@H]4C(=O)O)cc3Cl)c2C)c1C [Example 4006, (S)-1-(5-chloro-2-((5-cyanopyridin-3-yl)methoxy)-4-((3′-(ethylcarbamoyl)-2,2′-dimethyl-[1,1′-biphenyl]-3-yl)methoxy)benzyl)piperidine-2-carboxylic Acid] |
| 0.21 to 10 | – | Cc1c(OCCCN2CC[C@@H](O)C2)cccc1-c1cccc(COc2cc(OCc3cncc(C#N)c3)c(CNC(C)(CO)CO)cc2Cl)c1Cl [Example 2305, (R)-5-((4-chloro-5-((2-chloro-3′-(3-(3-hydroxypyrrolidin-1-yl)propoxy)-2′-methyl-[1,1′-biphenyl]-3-yl)methoxy)-2-(((1,3-dihydroxy-2-methylpropan-2-yl)amino)methyl)phenoxy)methyl)nicotinonitrile] |
| 0.21 to 10 | – | CC(=O)N[C@@H]1CCN(CCCOc2cccc(-c3cccc(COc4cc(OCc5cncc(C#N)c5)c(CN5CC[C@@H](NC(C)=O)C5)cc4Cl)c3C)c2C)C1 [Example 2267, N-((3R)-1-(3-(3′-((4-(((R)-3-acetamidopyrrolidin-1-yl)methyl)-2-chloro-5-((5-cyanopyridin-3-yl)methoxy)phenoxy)methyl)-2,2′-dimethylbiphenyl-3-yloxy)propyl)pyrrolidin-3-yl)acetamide] |
| 0.21 to 10 | – | Cc1c(COc2cc(OCc3cncc(C#N)c3)c(CN(C)C(C)(CO)CO)cc2Cl)cccc1-c1cccc(OCCCN2CCC(F)(F)C2)c1C [Example 4114, 5-((4-chloro-5-((3′-(3-(3,3-difluoropyrrolidin-1-yl)propoxy)-2,2′-dimethyl-[1,1′-biphenyl]-3-yl)methoxy)-2-(((1,3-dihydroxy-2-methylpropan-2-yl)(methyl)amino)methyl)phenoxy)methyl)nicotinonitrile] |
| – | 3 | Cc1ccc(COc2cc(OCc3cccc(-c4cccc(OCCCN5CC[C@@H](O)C5)c4C)c3C)c(Cl)cc2CNC(C)(CO)CO)cc1C [Example 4506, (R)-2-((5-chloro-2-((3,4-dimethylbenzyl)oxy)-4-((3′-(3-(3-hydroxypyrrolidin-1-yl)propoxy)-2,2′-dimethyl-[1,1′-biphenyl]-3-yl)methoxy)benzyl)amino)-2-methylpropane-1,3-diol] |
| 0.21 to 10 | – | COC(=O)C1(C)CCCCN1Cc1cc(Cl)c(OCc2cccc(-c3cccc(OCCCN4CC[C@@H](O)C4)c3C)c2C)cc1OCc1cncc(C#N)c1 (stereo partly drawn) [Example 3069, methyl 1-(5-chloro-2-((5-cyanopyridin-3-yl)methoxy)-4-((3′-(3-((R)-3-hydroxypyrrolidin-1-yl)propoxy)-2,2′-dimethyl-[1,1′-biphenyl]-3-yl)methoxy)benzyl)-2-methylpiperidine-2-carboxylate] |
| 100 to 2000 | – | CCNC(=O)c1cccc(-c2cccc(COc3cc(OCc4cc(F)cc(F)c4)c(CN4CCC[C@H]4C(=O)O)cc3Cl)c2C)c1C [Example 4018, (5-chloro-2-((3,5-difluorobenzyl)oxy)-4-((3′-(ethylcarbamoyl)-2,2′-dimethyl-[1,1′-biphenyl]-3-yl)methoxy)benzyl)-L-proline] |
| 100 to 2000 | – | Cc1c(COc2cc(OCc3cncc(C#N)c3)c(CNCCCN(C)C)cc2Cl)cccc1-c1cccc(CNCCCN(C)C)c1 [Example 3062, 5-((4-chloro-2-(((3-(dimethylamino)propyl)amino)methyl)-5-((3′-(((3-(dimethylamino)propyl)amino)methyl)-2-methyl-[1,1′-biphenyl]-3-yl)methoxy)phenoxy)methyl)nicotinonitrile] |

The remaining lines, values behind:

| Compound | IC50 (value given as range class) [nM] | IC50 (numeric IC50) [nM] |
| --- | --- | --- |
| Cc1c(COc2cc(OCc3cncc(C#N)c3)c(CN3CCCC[C@H]3C(=O)O)cc2Cl)cccc1-c1cccc(OCC(O)CO)c1Cl (stereo partly drawn) [Example 2083, (2S)-1-(5-chloro-4-((2′-chloro-3′-(2,3-dihydroxypropoxy)-2-methyl-[1,1′-biphenyl]-3-yl)methoxy)-2-((5-cyanopyridin-3-yl)methoxy)benzyl)piperidine-2-carboxylic Acid] | – | 4 |
| Cc1c(COc2cc(OCc3cncc(S(C)(=O)=O)c3)c(CN3CCCC[C@H]3C(=O)O)cc2Cl)cccc1-c1ccc2c(c1)OC(CCN1CCC(O)(CC(=O)O)C1)CO2 (mixture of isomers) [Example 1508, (2S)-1-(4-((3-(3-(2-(3-(carboxymethyl)-3-hydroxypyrrolidin-1-yl)ethyl)-2,3-dihydrobenzo[b][1,4]dioxin-6-yl)-2-methylbenzyl)oxy)-5-chloro-2-((5-(methylsulfonyl)pyridin-3-yl)methoxy)benzyl)piperidine-2-carboxylic acid] | 0.21 to 10 | – |
| Cc1c(COc2cc(OCc3cncc(C#N)c3)c(CNC[C@H](O)CO)cc2Cl)cccc1-c1cccc(OCCCN(C)CCC(N)=O)c1Cl [Example 2032, (S)-3-((3-((2-chloro-3′-((2-chloro-5-((5-cyanopyridin-3-yl)methoxy)-4-(((2,3-dihydroxypropyl)amino)methyl)phenoxy)methyl)-2′-methyl-[1,1′-biphenyl]-3-yl)oxy)propyl)(methyl)amino)propanamide] | 0.21 to 10 | – |
| Cc1c(COc2cc(OCc3cncc(C#N)c3)c(CN[C@H](CO)C(=O)O)cc2Cl)cccc1-c1cccc(OCCCN2CCC(O)(C(=O)O)CC2)c1C [Example 1036, (R)-1-(3-((3′-((4-(((1-carboxy-2-hydroxyethyl)amino)methyl)-2-chloro-5-((5-cyanopyridin-3-yl)methoxy)phenoxy)methyl)-2,2′-dimethyl-[1,1′-biphenyl]-3-yl)oxy)propyl)-4-hydroxypiperidine-4-carboxylic Acid] | 0.21 to 10 | – |
| Cc1c(COc2cc(OCc3cncc(C#N)c3)c(CO)cc2Cl)cccc1-c1cccc(OCCCN2CC[C@@H](O)C2)c1Cl [Example 2002, (R)-5-((4-chloro-5-((2′-chloro-3′-(3-(3-hydroxypyrrolidin-1-yl)propoxy)-2-methyl-[1,1′-biphenyl]-3-yl)methoxy)-2-(hydroxymethyl)phenoxy)methyl)nicotinonitrile] | 0.21 to 10 | – |
| Cc1c(COc2cc(OCc3cncc(C#N)c3)c(CN3CCCC[C@H]3C(=O)O)cc2Cl)cccc1-c1cccc(OCCCN2CCC(O)(CC(=O)O)C2)c1C (mixture of isomers) [Example 1519, (2S)-1-(4-((3′-(3-(3-(carboxymethyl)-3-hydroxypyrrolidin-1-yl)propoxy)-2,2′-dimethyl-[1,1′-biphenyl]-3-yl)methoxy)-5-chloro-2-((5-cyanopyridin-3-yl)methoxy)benzyl)piperidine-2-carboxylic acid] | 0.21 to 10 | – |
| Cc1c(COc2cc(OCc3cncc(C#N)c3)c(CNC[C@@H](O)CC(=O)O)cc2Cl)cccc1-c1cccc(OCCCN2CC[C@@H](O)C2)c1 [Example 1014, (S)-4-((5-chloro-2-((5-cyanopyridin-3-yl)methoxy)-4-((3′-(3-((R)-3-hydroxypyrrolidin-1-yl)propoxy)-2-methyl-[1,1′-biphenyl]-3-yl)methoxy)benzyl)amino)-3-hydroxybutanoic Acid] | 0.21 to 10 | – |
| Cc1c(COc2cc(OCc3cncc(C#N)c3)c(CN(C)CC(C)(C)O)cc2Cl)cccc1-c1cccc(OCCCN2CC[C@@H](O)C2)c1Cl [Example 2068, (R)-5-((4-chloro-5-((2′-chloro-3′-(3-(3-hydroxypyrrolidin-1-yl)propoxy)-2-methyl-[1,1′-biphenyl]-3-yl)methoxy)-2-(((2-hydroxy-2-methylpropyl)(methyl)amino)methyl)phenoxy)methyl)nicotinonitrile] | 0.21 to 10 | – |

Source: patent US10745382B2 (BRISTOL-MYERS SQUIBB COMPANY, priority 2015, dated 2020)
